Reference: patent US20260356851A1, “TRICYCLIC COMPOUNDS AND USES THEREOF” (HUTCHMED LIMITED, priority 2023, published 2026)

How the values were obtained:
Type in all cases: cell-based
[1] = target: T1, pERK1/2 (Thr202/Tyr204), PANC-1 (KRAS G121D) (Homo sapiens, UniProt P01116, G12D); assay: Assay of intracellular pERK1/2 (Thr202/Tyr204) phosphorylation in PANC-1 cells (KRAS G12D); conditions: pERK1/2, 2 days, read-out: PANC-1 (KRAS G12D) IC50
T1 construct: pERK1/2 HTRF read-out
Summary of the method: (§1)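 Cells (10000-12000/well) exposed to 3-fold compound dilutions for 2 days at 37 °C, then lysed; pERK1/2 (Thr202/Tyr204) measured by HTRF with d2 and cryptate antibodies, 665/615 nm ratio.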

[2] = target: T2, pERK1/2 (Thr202/Tyr204), NCI-1H441 (KRAS G12V) (Homo sapiens, UniProt P01116, G12V); assay: Assay of intracellular pERK1/2 (Thr202/Tyr204) phosphorylation in NCI-H441 cells (KRAS G12V); conditions: pERK1/2, 2 days, read-out: NCI-H441 (KRAS G12V) IC50
T2 construct: pERK1/2 HTRF read-out
Summary of the method: as §1

[3] = target: T3, pERK1/2 (Thr202/Tyr204), NCI-1H358 (KRAS G12C) (Homo sapiens, UniProt P01116, G12C); assay: Assay of intracellular pERK1/2 (Thr202/Tyr204) phosphorylation in NCI-H358 cells (KRAS G12C); conditions: pERK1/2, 2 days, read-out: NCI-H358 (KRAS G12C) IC50
T3 construct: pERK1/2 HTRF read-out
Summary of the method: as §1

T1 sequence (P01116 1-188 isoform P01116-2 G12D): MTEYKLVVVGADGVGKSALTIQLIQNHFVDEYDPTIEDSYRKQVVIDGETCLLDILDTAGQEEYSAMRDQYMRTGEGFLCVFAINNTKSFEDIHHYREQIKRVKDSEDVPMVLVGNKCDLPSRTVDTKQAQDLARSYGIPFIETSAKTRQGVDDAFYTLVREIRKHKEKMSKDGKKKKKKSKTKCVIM
T3 sequence (P01116 1-188 isoform P01116-2 G12C): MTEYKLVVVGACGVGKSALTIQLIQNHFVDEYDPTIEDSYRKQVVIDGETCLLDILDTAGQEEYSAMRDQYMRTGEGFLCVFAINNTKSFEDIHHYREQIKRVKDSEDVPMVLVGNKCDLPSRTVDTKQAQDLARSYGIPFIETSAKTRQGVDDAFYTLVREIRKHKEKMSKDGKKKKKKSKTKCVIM
T2 sequence (P01116 1-188 isoform P01116-2 G12V): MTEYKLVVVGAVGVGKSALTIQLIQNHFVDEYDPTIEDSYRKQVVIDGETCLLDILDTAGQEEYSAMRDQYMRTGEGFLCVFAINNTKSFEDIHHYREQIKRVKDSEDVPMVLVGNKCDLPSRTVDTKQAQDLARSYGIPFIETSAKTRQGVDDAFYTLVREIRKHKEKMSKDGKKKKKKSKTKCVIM

SMILES | IC50 [1] [nM] | IC50 [2] [nM] | IC50 [3] [nM]
Cc1cc(N)cc(-c2nc3c4c(nc(OC[C@@H]5CCCN5C)nc4c2F)N(C(C)c2cccnc2N)CCO3)c1C(F)(F)F (single isomer, unassigned) [Compound 77, 3-((R or S)-1-(5-(5-amino-3-methyl-2-(trifluoromethyl)phenyl)-4-fluoro-2-(((S)-1-methylpyrrolidin-2-yl)methoxy)-8,9-dihydro-10H-7-oxa-1,3,6,10-tetraazacyclohepta[de]naphthalen-10-yl)ethyl)pyridin-2-amine] | > 100 | 37 | 38
Cc1cc(N)cc(-c2nc3c4c(nc(OC[C@H]5CCCN5CCF)nc4c2F)N(C(C)c2cccnc2N)CCO3)c1C(F)(F)F (single isomer, unassigned) [Compound 78, 3-((R or S)-1-(5-(5-amino-3-methyl-2-(trifluoromethyl)phenyl)-4-fluoro-2-(((R)-1-(2-fluoroethyl)pyrrolidin-2-yl)methoxy)-8,9-dihydro-10H-7-oxa-1,3,6,10-tetraazacyclohepta[de]naphthalen-10-yl)ethyl)pyridin-2-amine] | 42 | 3 | 2
Cc1cc(N)cc(-c2nc3c4c(nc(OC[C@H]5CCCN5CCF)nc4c2F)N(C(C)c2cccnc2N)CCO3)c1C(F)(F)F (single isomer, unassigned) [Compound 79, 3-((R or S)-1-(5-(5-amino-3-methyl-2-(trifluoromethyl)phenyl)-4-fluoro-2-(((R)-1-(2-fluoroethyl)pyrrolidin-2-yl)methoxy)-8,9-dihydro-10H-7-oxa-1,3,6,10-tetraazacyclohepta[de]naphthalen-10-yl)ethyl)pyridin-2-amine] | > 100 | > 100 | > 100
Cc1cc(N)cc(-c2nc3c4c(nc(OC[C@@H]5C[C@@H](F)CN5C)nc4c2F)N(C(C)c2cccnc2N)CCO3)c1C(F)(F)F (single isomer, unassigned) [Compound 80, 3-((R or S)-1-(5-(5-amino-3-methyl-2-(trifluoromethyl)phenyl)-4-fluoro-2-(((2S,4R)-4-fluoro-1-methylpyrrolidin-2-yl)methoxy)-8,9-dihydro-10H-7-oxa-1,3,6,10-tetraazacyclohepta[de]naphthalen-10-yl)ethyl)pyridin-2-amine] | 19 | 0.7 | 0.5
Cc1cc(N)cc(-c2nc3c4c(nc(OC[C@@H]5C[C@@H](F)CN5C)nc4c2F)N(C(C)c2cccnc2N)CCO3)c1C(F)(F)F (single isomer, unassigned) [Compound 81, 3-((R or S)-1-(5-(5-amino-3-methyl-2-(trifluoromethyl)phenyl)-4-fluoro-2-(((2S,4R)-4-fluoro-1-methylpyrrolidin-2-yl)methoxy)-8,9-dihydro-10H-7-oxa-1,3,6,10-tetraazacyclohepta[de]naphthalen-10-yl)ethyl)pyridin-2-amine] | > 100 | > 100 | > 100
Cc1c(F)c(N)cc(-c2nc3c4c(nc(OC[C@@H]5CCCN5C)nc4c2F)N(C(C)c2cccnc2N)CCO3)c1C(F)(F)F (single isomer, unassigned) [Compound 85, 3-((R or S)-1-(5-(5-amino-4-fluoro-3-methyl-2-(trifluoromethyl)phenyl)-4-fluoro-2-(((S)-1-methylpyrrolidin-2-yl)methoxy)-8,9-dihydro-10H-7-oxa-1,3,6,10-tetraazacyclohepta[de]naphthalen-10-yl)ethyl)pyridin-2-amine] | 11 | 2 | 0.4
Cc1c(F)c(N)cc(-c2nc3c4c(nc(OC[C@@H]5CCCN5C)nc4c2F)N(C(C)c2cccnc2N)CCO3)c1C(F)(F)F (single isomer, unassigned) [Compound 86, 3-((R or S)-1-(5-(5-amino-4-fluoro-3-methyl-2-(trifluoromethyl)phenyl)-4-fluoro-2-(((S)-1-methylpyrrolidin-2-yl)methoxy)-8,9-dihydro-10H-7-oxa-1,3,6,10-tetraazacyclohepta[de]naphthalen-10-yl)ethyl)pyridin-2-amine] | > 100 | 43 | 29
CC(c1cccnc1N)N1CCOc2nc(-c3cc(N)cc(F)c3C(F)(F)F)c(F)c3nc(OC[C@@]45CCCN4C[C@H](F)C5)nc1c23 (single isomer, unassigned) [Compound 88, 3-((R or S)-1-(5-(5-amino-3-fluoro-2-(trifluoromethyl)phenyl)-4-fluoro-2-(((2R,7aS)-2-fluorotetrahydro-1H-pyrrolizin-7a(5H)-yl)methoxy)-8,9-dihydro-10H-7-oxa-1,3,6,10-tetraazacyclohepta[de]naphthalen-10-yl)ethyl)pyridin-2-amine] | 3 | 1 | 0.4
CC(c1cccnc1N)N1CCOc2nc(-c3cc(N)cc(F)c3C(F)(F)F)c(F)c3nc(OC[C@@]45CCCN4C[C@H](F)C5)nc1c23 (single isomer, unassigned) [Compound 89, 3-((R or S)-1-(5-(5-amino-3-fluoro-2-(trifluoromethyl)phenyl)-4-fluoro-2-(((2R,7aS)-2-fluorotetrahydro-1H-pyrrolizin-7a(5H)-yl)methoxy)-8,9-dihydro-10H-7-oxa-1,3,6,10-tetraazacyclohepta[de]naphthalen-10-yl)ethyl)pyridin-2-amine] | > 100 | 43 | 26
CC(c1cccnc1N)N1CCOc2nc(-c3cc(N)cc(F)c3C(F)(F)F)c(F)c3nc(OC[C@@H]4CCCN4C)nc1c23 (single isomer, unassigned) [Compound 90, 3-((R or S)-1-(5-(5-amino-3-fluoro-2-(trifluoromethyl)phenyl)-4-fluoro-2-(((S)-1-methylpyrrolidin-2-yl)methoxy)-8,9-dihydro-10H-7-oxa-1,3,6,10-tetraazacyclohepta[de]naphthalen-10-yl)ethyl)pyridin-2-amine] | 91 | 6 | 2
CC(c1cccnc1N)N1CCOc2nc(-c3cc(N)cc(F)c3C(F)(F)F)c(F)c3nc(OC[C@@H]4CCCN4C)nc1c23 (single isomer, unassigned) [Compound 91, 3-((R or S)-1-(5-(5-amino-3-fluoro-2-(trifluoromethyl)phenyl)-4-fluoro-2-(((S)-1-methylpyrrolidin-2-yl)methoxy)-8,9-dihydro-10H-7-oxa-1,3,6,10-tetraazacyclohepta[de]naphthalen-10-yl)ethyl)pyridin-2-amine] | > 100 | > 100 | > 100
CC(c1cccnc1N)N1CCOc2nc(-c3cc(N)cc(F)c3C(F)(F)F)c(F)c3nc(OC[C@@H]4C[C@@H](F)CN4C)nc1c23 (single isomer, unassigned) [Compound 92, 3-((R or S)-1-(5-(5-amino-3-fluoro-2-(trifluoromethyl)phenyl)-4-fluoro-2-(((2S,4R)-4-fluoro-1-methylpyrrolidin-2-yl)methoxy)-8,9-dihydro-10H-7-oxa-1,3,6,10-tetraazacyclohepta[de]naphthalen-10-yl)ethyl)pyridin-2-amine] | 58 | 2 | 1
CC(c1cccnc1N)N1CCOc2nc(-c3cc(N)cc(F)c3C(F)(F)F)c(F)c3nc(OC[C@@H]4C[C@@H](F)CN4C)nc1c23 (single isomer, unassigned) [Compound 93, 3-((R or S)-1-(5-(5-amino-3-fluoro-2-(trifluoromethyl)phenyl)-4-fluoro-2-(((2S,4R)-4-fluoro-1-methylpyrrolidin-2-yl)methoxy)-8,9-dihydro-10H-7-oxa-1,3,6,10-tetraazacyclohepta[de]naphthalen-10-yl)ethyl)pyridin-2-amine] | > 100 | > 100 | > 100
[2H]C([2H])([2H])N1CCC[C@H]1COc1nc2c3c(nc(-c4cc(N)cc(C)c4C(F)(F)F)c(F)c3n1)OCCN2C(C)c1cccnc1N (single isomer, unassigned) [Compound 95, 3-((R or S)-1-(5-(5-amino-3-methyl-2-(trifluoromethyl)phenyl)-4-fluoro-2-(((S)-1-(methyl-d3)pyrrolidin-2-yl)methoxy)-8,9-dihydro-10H-7-oxa-1,3,6,10-tetraazacyclohepta[de]naphthalen-10-yl)ethyl)pyridin-2-amine] | 24 | 2 | 0.8
[2H]C([2H])([2H])N1CCC[C@H]1COc1nc2c3c(nc(-c4cc(N)cc(C)c4C(F)(F)F)c(F)c3n1)OCCN2C(C)c1cccnc1N (single isomer, unassigned) [Compound 96, 3-((R or S)-1-(5-(5-amino-3-methyl-2-(trifluoromethyl)phenyl)-4-fluoro-2-(((S)-1-(methyl-d3)pyrrolidin-2-yl)methoxy)-8,9-] | > 100 | 57 | 27
CC(c1cccnc1N)N1CCOc2nc(-c3cc(N)cc(Cl)c3C(F)(F)F)c(F)c3nc(OC[C@@H]4CCCN4C)nc1c23 (single isomer, unassigned) [Compound 98, 3-((R or S)-1-(5-(5-amino-3-chloro-2-(trifluoromethyl)phenyl)-4-fluoro-2-(((S)-1-methylpyrrolidin-2-yl)methoxy)-8,9-dihydro-10H-7-oxa-1,3,6,10-tetraazacyclohepta[de]naphthalen-10-yl)ethyl)pyridin-2-amine] | 10 | 0.5 | 0.3
